Data taken from patent US6040335A, “Therapeutics for thrombocytopenia” (Suntory Limited, priority 1995, dated 2000).

Experiments:
C57BL/6 mice = test: Toxicity Test (intravenous, deaths); assay type: in vivo; conditions: 5 mg/kg intravenous
Mouse Platelet = Mouse Platelet Increasing Action (platelet count, electrical impedance method); assay type: in vivo, C57BL/6 mice; conditions: every 24 hr
Description: The measurement of platelet increasing activity can be implemented by the method described in Ishibashi, T. et al, Blood, 74(4):1241-1244, 1989 or modifications thereof. For example, an animal for platelet measurement such as mouse (e.g. C57BL/6 mouse), rat, dog or monkey is administered intraperitoneally with a test drug as dissolved in ethanolic physiological saline or dimethyl sulfoxide (hereunder sometimes referred to as DMSO) at a suitable concentration. The frequency of administration is usually once or twice a day for 5-10 continuous days; a blood sample is taken from the orbital venous plexus several hours after the final administration and the platelet count is determined. Administration may be performed by any methods including oral, intravenous, intramuscular and subcutaneous routes. The interval of administrations, their frequency and the number of days on which the administration is made are also variable with the drug under test. Platelet count can be determined by an electrical impedance method using a multi-channel automatic platelet counter (e.g., COULTER COUNTER Model JT of Coulter Corporation).
C57BL/6 mice (male, 7-week old) were administered intraperitoneally with the following compounds of the invention in 1% DMSO physiological saline or with 1% DMSO physiological saline alone (control) at 24-hr intervals for 5, 7 or 10 continuous days. Blood samples were collected 72-hr after the final administration in the case of 5-day administration, and 4-hr after the final administration in the case of 7 or 10-day administration, and the platelet count was determined by an electrical impedance method.

[1] = 0.03 mg/kg i.p., 5 days, blood 72 hr after final administration
[2] = 0.1 mg/kg i.p., 5 days, blood 72 hr after final administration
[3] = 1.0 mg/kg i.p., 5 days, blood 72 hr after final administration

Compound	cases of death (C57BL/6 mice)	Platelet count (Mean ± S.E.) (Mouse Platelet; 0.03 mg/kg i.p., 7 days, blood 4 hr after final administration, control 1070 ± 152)	Platelet count (Mean ± S.E.) (Mouse Platelet; 0.1 mg/kg i.p., 7 days, blood 4 hr after final administration, control 1070 ± 152)	Platelet count (Mean ± S.E.) (Mouse Platelet; 0.1 mg/kg i.p., 10 days, blood 4 hr after final administration, control 985 ± 130)	Platelet count (Mean ± S.E.) (Mouse Platelet; 1.0 mg/kg i.p., 7 days, blood 4 hr after final administration, control 1070 ± 152)	Platelet count (Mean ± S.E.) (Mouse Platelet; 1.0 mg/kg i.p., 10 days, blood 4 hr after final administration, control 985 ± 130)	Platelet count (Mean ± S.E.) (Mouse Platelet; [1])	Platelet count (Mean ± S.E.) (Mouse Platelet; [2])	Platelet count (Mean ± S.E.) (Mouse Platelet; [3])
CCC1C=CC(=O)OC1/C=C/C(O)(CCN(C)C)C(CC(O)/C=C\C=C/C1CCCC(O)C1)OP(=O)(O)O (centres unmarked) [Example 3, 6-[3,6-Dihydroxy-3-(2-dimethylaminoethyl)-10-(3-hydroxycyclohexyl)-4-(phosphonoxy)-1,7,9-decatrienyl]-5,6-dihydro-5-ethyl-2H-pyran-2-one]	no cases of death	1417 ± 159 × 10^3 /μl	1486 ± 314 × 10^3 /μl	1280 ± 260 × 10^3 /μl	1532 ± 137 × 10^3 /μl	1356 ± 156 × 10^3 /μl	–	–	–
CCC1C=CC(=O)OC1/C=C/C(O)(CCN(CC)CC)C(CC(O)/C=C\C=C/C1CCCC(O)C1)OP(=O)(O)O (centres unmarked) [Example 7, 6-[3-(2-Diethylaminoethyl)-3,6-dihydroxy-10-(3-hydroxycyclohexyl)-4-(phosphonoxy)-1,7,9-decatrienyl]-5,6-dihydro-5-ethyl-2H-pyran-2-one]	–	–	–	–	–	–	1373 ± 76 × 10^3 /μl	1686 ± 226 × 10^3 /μl	1408 ± 427 × 10^3 /μl
CCC1C=CC(=O)OC1/C=C/C(O)(CCNC(C)C)C(CC(O)/C=C\C=C/C1CCCC(O)C1)OP(=O)(O)O (centres unmarked) [Example 9, 6-[3,6-Dihydroxy-10-(3-hydroxycyclohexyl)-3-(2-isopropylaminoethyl)-4-(phosphonoxy)-1,7,9-decatrienyl]-5,6-dihydro-5-ethyl-2H-pyran-2-one]	–	–	–	–	–	–	1433 ± 125 × 10^3 /μl	1818 ± 291 × 10^3 /μl	1465 ± 244 × 10^3 /μl
CCCCCNCCC(O)(/C=C/C1OC(=O)C=CC1CC)C(CC(O)/C=C\C=C/C1CCCC(O)C1)OP(=O)(O)O (centres unmarked) [Example 12, 6-[3,6-Dihydroxy-10-(3-hydroxycyclohexyl)-3-(2-pentylaminoethyl)-4-(phosphonoxy)-1,7,9-decatrienyl]-5,6-dihydro-5-ethyl-2H-pyran-2-one]	–	–	–	–	–	–	1263 ± 99 × 10^3 /μl	1623 ± 192 × 10^3 /μl	1338 ± 236 × 10^3 /μl
CCC1C=CC(=O)OC1/C=C/C(O)(CCNC1CCCC1)C(CC(O)/C=C\C=C/C1CCCC(O)C1)OP(=O)(O)O (centres unmarked) [Example 13, 6-[3-(2-Cyclopentylaminoethyl)-3,6-dihydroxy-10-(3-hydroxycyclohexyl)-4-(phosphonoxy)-1,7,9-decatrienyl]-5,6-dihydro-5-ethyl-2H-pyran-2-one]	–	–	–	–	–	–	1490 ± 108 × 10^3 /μl	1765 ± 291 × 10^3 /μl	1313 ± 293 × 10^3 /μl
CCC1C=CC(=O)OC1/C=C/C(O)(CCN(CCO)CCO)C(CC(O)/C=C\C=C/C1CCCC(O)C1)OP(=O)(O)O (centres unmarked) [Example 20, 6-[3-(2-Diethanolaminoethyl)-3,6-dihydroxy-10-(3-hydroxycyclohexyl)-4-(phosphonoxy)-1,7,9-decatrienyl]-5,6-dihydro-5-ethyl-2H-pyran-2-one]	–	–	–	–	–	–	1154 ± 138 × 10^3 /μl	1325 ± 104 × 10^3 /μl	1498 ± 192 × 10^3 /μl
CCC1C=CC(=O)OC1/C=C/C(O)(CC[N+](C)(C)C)C(CC(O)/C=C\C=C/C1CCCC(O)C1)OP(=O)(O)O (centres unmarked) [Example 23, 6-[3,6-Dihydroxy-10-(3-hydroxycyclohexyl)-4-(phosphonoxy)-3-(2-trimethylammoniumethyl)-1,7,9-decatrienyl]-5,6-dihydro-5-ethyl-2H-pyran-2-one]	–	–	–	–	–	–	–	1545 ± 294 × 10^3 /μl	1513 ± 425 × 10^3 /μl
C=CCN(CC=C)CCC(O)(/C=C/C1OC(=O)C=CC1CC)C(CC(O)/C=C\C=C/C1CCCC(O)C1)OP(=O)(O)O (centres unmarked) [Example 25, 6-[3-(2-Diallylaminoethyl)-3,6-dihydroxy-10-(3-hydroxycyclohexyl)-4-(phosphonoxy)-1,7,9-decatrienyl]-5,6-dihydro-5-ethyl-2H-pyran-2-one]	–	–	–	–	–	–	1074 ± 182 × 10^3 /μl	1506 ± 209 × 10^3 /μl	1133 ± 170 × 10^3 /μl
